Source: ChEMBL document CHEMBL1201862, “PubChem BioAssay data set” (2004)
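Exposure lasted 48 hours, with cells grown in 96-well plates and compounds tested at five concentrations. GI50 = concentration required for 50% inhibition of growth.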 Calls of active or inactive are those of the source. Cut-off read from the data, not from the text of the source: active = GI50 up to about 1.1 µM and inactive = higher.

What was measured:
Experiment in all cases: NCI-60 cell line screen, 48 h
SR = test system: SR
HCT-15 = test system: HCT-15
LOX IMVI = test system: LOX IMVI
COLO 205 = test system: COLO 205
OVCAR-8 = test system: OVCAR-8
KM-20L2 = test system: KM-20L2
HL-60 = test system: HL-60
A498 = test system: A498
ACHN = test system: ACHN
SNB-75 = test system: SNB-75
TK-10 = test system: TK-10
HCC 2998 = test system: HCC 2998
SK-OV-3 = test system: SK-OV-3
LXFL 529 = test system: LXFL 529
Malme-3M = test system: Malme-3M
U-251 = test system: U-251
M19-MEL = test system: M19-MEL
RPMI-8226 = test system: RPMI-8226
SN12C = test system: SN12C
SNB-19 = test system: SNB-19
XF498 = test system: XF498
UACC-257 = test system: UACC-257
SF-539 = test system: SF-539
HCT-116 = test system: HCT-116
NCI-H226 = test system: NCI-H226
UACC-62 = test system: UACC-62
DMS-114 = test system: DMS-114
NCI-H23 = test system: NCI-H23
EKVX = test system: EKVX
K562 = test system: K562
KM12 = test system: KM12
OVCAR-4 = test system: OVCAR-4
HOP-18 = test system: HOP-18
IGROV-1 = test system: IGROV-1
HT-29 = test system: HT-29
SF-268 = test system: SF-268
HOP-92 = test system: HOP-92
SF-295 = test system: SF-295
SK-MEL-2 = test system: SK-MEL-2
UO-31 = test system: UO-31
M14 = test system: M14
MOLT-4 = test system: MOLT-4
786-0 = test system: 786-0
SK-MEL-28 = test system: SK-MEL-28
NCI-H522 = test system: NCI-H522
CCRF-CEM = test system: CCRF-CEM
HOP-62 = test system: HOP-62
A549 = test system: A549
DMS-273 = test system: DMS-273
DLD-1 = test system: DLD-1
RXF 393 = test system: RXF 393
SNB-78 = test system: SNB-78
OVCAR-3 = test system: OVCAR-3
NCI-H460 = test system: NCI-H460
SW-620 = test system: SW-620

With `C[N+]1(C)CCCC1C(=O)[O-]` (stereo not given) as the molecule, how does the GI50 (SR) read?
Its GI50 is > 100 µM (inactive).

And the GI50 (HCT-15)?
The GI50 was over 100 µM.

And the GI50 (LOX IMVI)?
Its GI50 is > 100 µM (inactive).

What about the GI50 (COLO 205) of the same molecule?
Its GI50 is > 100 µM (inactive).

What about the GI50 (OVCAR-8) of the same molecule?
The GI50 was > 100 µM (inactive).

What about the GI50 (KM-20L2) of the same molecule?
Its GI50 is > 100 µM (inactive).

And the GI50 (HL-60)?
Its GI50 is > 100 µM (inactive).

What about the GI50 (A498) of the same molecule?
Its GI50 is > 100 µM (inactive).

And the GI50 (ACHN)?
The GI50 was > 100 µM (inactive).

What about the GI50 (SNB-75) of the same molecule?
The GI50 was > 100 µM (inactive).

And the GI50 (TK-10)?
Its GI50 is > 100 µM (inactive).

What about the GI50 (HCC 2998) of the same molecule?
Its GI50 is > 100 µM (inactive).

What about the GI50 (SK-OV-3) of the same molecule?
The GI50 was > 100 µM (inactive).

And the GI50 (LXFL 529)?
The GI50 was > 100 µM (inactive).

What about the GI50 (Malme-3M) of the same molecule?
The GI50 was > 100 µM (inactive).

What about the GI50 (U-251) of the same molecule?
Its GI50 is > 100 µM (inactive).

And the GI50 (M19-MEL)?
The GI50 was > 100 µM (inactive).

And the GI50 (RPMI-8226)?
Its GI50 is > 100 µM (inactive).

And the GI50 (SN12C)?
The GI50 was > 100 µM (inactive).

And the GI50 (SNB-19)?
Its GI50 is > 100 µM (inactive).

And the GI50 (XF498)?
Its GI50 is > 100 µM (inactive).

And the GI50 (UACC-257)?
The GI50 was > 100 µM (inactive).

And the GI50 (SF-539)?
Its GI50 is > 100 µM (inactive).

And the GI50 (HCT-116)?
Its GI50 is > 100 µM (inactive).

What about the GI50 (NCI-H226) of the same molecule?
The GI50 was > 100 µM (inactive).

What about the GI50 (UACC-62) of the same molecule?
Its GI50 is > 100 µM (inactive).

What about the GI50 (DMS-114) of the same molecule?
Its GI50 is > 100 µM (inactive).

And the GI50 (NCI-H23)?
The GI50 was > 100 µM (inactive).

What about the GI50 (EKVX) of the same molecule?
The GI50 was > 100 µM (inactive).

What about the GI50 (K562) of the same molecule?
Its GI50 is > 100 µM (inactive).

What about the GI50 (KM12) of the same molecule?
Its GI50 is > 100 µM (inactive).

And the GI50 (OVCAR-4)?
Its GI50 is > 100 µM (inactive).

And the GI50 (HOP-18)?
The GI50 was > 100 µM (inactive).

And the GI50 (IGROV-1)?
The GI50 was > 100 µM (inactive).

And the GI50 (HT-29)?
Its GI50 is > 100 µM (inactive).

And the GI50 (SF-268)?
Its GI50 is > 100 µM (inactive).

What about the GI50 (HOP-92) of the same molecule?
The GI50 was > 100 µM (inactive).

What about the GI50 (SF-295) of the same molecule?
Its GI50 is > 100 µM (inactive).

And the GI50 (SK-MEL-2)?
Its GI50 is > 100 µM (inactive).

What about the GI50 (UO-31) of the same molecule?
Its GI50 is > 100 µM (inactive).

And the GI50 (M14)?
Its GI50 is > 100 µM (inactive).

And the GI50 (MOLT-4)?
Its GI50 is > 100 µM (inactive).

And the GI50 (786-0)?
The GI50 was > 100 µM (inactive).

And the GI50 (SK-MEL-28)?
Its GI50 is > 100 µM (inactive).

What about the GI50 (NCI-H522) of the same molecule?
Its GI50 is > 100 µM (inactive).

And the GI50 (CCRF-CEM)?
Its GI50 is > 100 µM (inactive).

And the GI50 (HOP-62)?
The GI50 was > 100 µM (inactive).

And the GI50 (A549)?
The GI50 was > 100 µM (inactive).

What about the GI50 (DMS-273) of the same molecule?
The GI50 was > 100 µM (inactive).

And the GI50 (DLD-1)?
Its GI50 is > 100 µM (inactive).

And the GI50 (RXF 393)?
The GI50 was > 100 µM (inactive).

What about the GI50 (SNB-78) of the same molecule?
Its GI50 is > 100 µM (inactive).

What about the GI50 (OVCAR-3) of the same molecule?
Its GI50 is > 100 µM (inactive).

And the GI50 (NCI-H460)?
The GI50 was > 100 µM (inactive).

What about the GI50 (SW-620) of the same molecule?
Its GI50 is > 100 µM (inactive).
